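Five compound concentrations were applied to cells in 96-well plates for 48 hours; endpoints were derived by simple linear interpolation of the resulting dose-response curve. TGI marks complete inhibition of growth.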
Key:
Assay in all cases: NCI-60 cell line screen, 48 h
CCRF-CEM leukemia = system: CCRF-CEM leukemia
NCI/ADR-RES ovarian = system: NCI/ADR-RES ovarian
NCI-H226 lung = system: NCI-H226 lung
ACHN renal = system: ACHN renal
HCC-2998 colon = system: HCC-2998 colon
MDA-N = system: MDA-N
SR leukemia = system: SR leukemia
SNB-19 CNS = system: SNB-19 CNS
MOLT-4 leukemia = system: MOLT-4 leukemia
HOP-92 NSCLC = system: HOP-92 NSCLC

Row | SMILES | TGI (CCRF-CEM leukemia) [µM] | TGI (NCI/ADR-RES ovarian) [µM] | TGI (NCI-H226 lung) [µM] | TGI (ACHN renal) [µM] | TGI (HCC-2998 colon) [µM] | TGI (MDA-N) [µM] | TGI (SR leukemia) [µM] | TGI (SNB-19 CNS) [µM] | TGI (MOLT-4 leukemia) [µM] | TGI (HOP-92 NSCLC) [µM]
1 | CCOc1ccc2c(c1)NC(=O)C(C1OC(c3ccccc3)=CC1=O)S2 (configuration not stated) | 10.9 | 67.1 | 67.5 | > 100 | 37.7 | 77.4 | 46.1 | > 100 |  | 
2 | C[n+]1c(-c2ccc(/C=N\NC(=O)c3ccc(C(=O)N/N=C/c4ccc(-c5cn6ccsc6[n+]5C)cc4)cc3)cc2)cn2ccsc21 | > 100 | 41.1 | 44.1 | 33.3 | 58.4 | 78.3 | 85.6 | 51.9 | 54.1 | 36.4
3 | CCOc1cc(NC(C)=O)ccc1C(=O)NN1C(=O)CSC1c1ccc(O)c(OC)c1 (configuration not stated) | > 100 | > 100 | > 100 | > 100 | > 100 | > 100 | > 100 | > 100 | > 100 | > 100
4 | O=C(CCO)OCCCCCC/C=C\CCCCCC/C=C\CCCCCCCCOC(=O)CCO | 32.2 | 32.7 |  | 64.3 | 30.1 | 33.2 |  | 32.9 | 28.6 | 32.5
5 | OC1(c2ccc3ccccc3c2)c2ccc3ccccc3c2C2=NCCN21 (configuration not stated) | > 100 | > 100 |  | > 100 | > 100 | > 100 | > 100 | > 100 | > 100 | > 100
6 | Cc1ccc(S(=O)(=O)NCCSS(=O)(=O)c2ccc(C)cc2)cc1 | > 100 | 72.3 | 49.6 | > 100 | > 100 | 56.8 | 39 | > 100 | > 100 | > 100
7 | CCCc1ccc(OCC(=O)N/N=C/c2c(-c3ccccc3)[nH]c3ccccc23)cc1 | 40.1 | 42.5 | 40.5 | > 100 | 14.1 |  | 23.1 | > 100 | 30.4 | 35.3
8 | CS(=O)(=O)OCc1c(O)c2c(c(O)c1COS(C)(=O)=O)C(=O)C=CC2=O | > 100 |  | > 100 | > 100 | > 100 |  | > 100 |  | > 100 | > 100
9 | CCCC(=O)OCC(O)CO (configuration not stated) | > 5000 |  | > 5000 | > 5000 |  |  | > 5000 |  | > 5000 | > 5000
10 | NC(N)=N/N=C/c1ccc(O)c(C(=O)O)c1 | > 100 | > 100 | > 100 | > 100 | > 100 | > 100 | > 100 | > 100 | > 100 | > 100
11 | Oc1ccc2ccccc2c1Cc1c(O)ccc2ccccc12 | 45.8 | 37.4 | 45.5 | 33.8 | 40.6 | 28.3 |  | 36.7 | 36.9 | 
12 | NC1=NS(=O)(=O)Nc2nc(-c3cccs3)[nH]c21 | > 100 |  |  | > 100 | > 100 |  | > 100 | > 100 | > 100 | > 100
